Assay in all cases: cell-based
For one assay, the target named is hNav1.7 (Homo sapiens, UniProt Q15858). To be noted: IonWorks Quattro; read-out: IC50 Nav1.7.
The target of a further assay is hNav1.5 (Homo sapiens, UniProt Q14524). To be noted: IonWorks Quattro; read-out: IC50 Nav1.5.
The target of the next assay is hNav1.4 (Homo sapiens, UniProt P35499). To be noted: IonWorks Quattro; read-out: IC50 Nav1.4. On the technique in general: In patch-clamp work, channel activity is measured electrically.
The next assay deals with hNav1.3 (Homo sapiens, UniProt Q9NY46). Particulars: IonWorks Quattro; read-out: IC50 Nav1.3.

The structures appear in SMILES notation.

Sequence of hNav1.7 (Q15858 whole entry): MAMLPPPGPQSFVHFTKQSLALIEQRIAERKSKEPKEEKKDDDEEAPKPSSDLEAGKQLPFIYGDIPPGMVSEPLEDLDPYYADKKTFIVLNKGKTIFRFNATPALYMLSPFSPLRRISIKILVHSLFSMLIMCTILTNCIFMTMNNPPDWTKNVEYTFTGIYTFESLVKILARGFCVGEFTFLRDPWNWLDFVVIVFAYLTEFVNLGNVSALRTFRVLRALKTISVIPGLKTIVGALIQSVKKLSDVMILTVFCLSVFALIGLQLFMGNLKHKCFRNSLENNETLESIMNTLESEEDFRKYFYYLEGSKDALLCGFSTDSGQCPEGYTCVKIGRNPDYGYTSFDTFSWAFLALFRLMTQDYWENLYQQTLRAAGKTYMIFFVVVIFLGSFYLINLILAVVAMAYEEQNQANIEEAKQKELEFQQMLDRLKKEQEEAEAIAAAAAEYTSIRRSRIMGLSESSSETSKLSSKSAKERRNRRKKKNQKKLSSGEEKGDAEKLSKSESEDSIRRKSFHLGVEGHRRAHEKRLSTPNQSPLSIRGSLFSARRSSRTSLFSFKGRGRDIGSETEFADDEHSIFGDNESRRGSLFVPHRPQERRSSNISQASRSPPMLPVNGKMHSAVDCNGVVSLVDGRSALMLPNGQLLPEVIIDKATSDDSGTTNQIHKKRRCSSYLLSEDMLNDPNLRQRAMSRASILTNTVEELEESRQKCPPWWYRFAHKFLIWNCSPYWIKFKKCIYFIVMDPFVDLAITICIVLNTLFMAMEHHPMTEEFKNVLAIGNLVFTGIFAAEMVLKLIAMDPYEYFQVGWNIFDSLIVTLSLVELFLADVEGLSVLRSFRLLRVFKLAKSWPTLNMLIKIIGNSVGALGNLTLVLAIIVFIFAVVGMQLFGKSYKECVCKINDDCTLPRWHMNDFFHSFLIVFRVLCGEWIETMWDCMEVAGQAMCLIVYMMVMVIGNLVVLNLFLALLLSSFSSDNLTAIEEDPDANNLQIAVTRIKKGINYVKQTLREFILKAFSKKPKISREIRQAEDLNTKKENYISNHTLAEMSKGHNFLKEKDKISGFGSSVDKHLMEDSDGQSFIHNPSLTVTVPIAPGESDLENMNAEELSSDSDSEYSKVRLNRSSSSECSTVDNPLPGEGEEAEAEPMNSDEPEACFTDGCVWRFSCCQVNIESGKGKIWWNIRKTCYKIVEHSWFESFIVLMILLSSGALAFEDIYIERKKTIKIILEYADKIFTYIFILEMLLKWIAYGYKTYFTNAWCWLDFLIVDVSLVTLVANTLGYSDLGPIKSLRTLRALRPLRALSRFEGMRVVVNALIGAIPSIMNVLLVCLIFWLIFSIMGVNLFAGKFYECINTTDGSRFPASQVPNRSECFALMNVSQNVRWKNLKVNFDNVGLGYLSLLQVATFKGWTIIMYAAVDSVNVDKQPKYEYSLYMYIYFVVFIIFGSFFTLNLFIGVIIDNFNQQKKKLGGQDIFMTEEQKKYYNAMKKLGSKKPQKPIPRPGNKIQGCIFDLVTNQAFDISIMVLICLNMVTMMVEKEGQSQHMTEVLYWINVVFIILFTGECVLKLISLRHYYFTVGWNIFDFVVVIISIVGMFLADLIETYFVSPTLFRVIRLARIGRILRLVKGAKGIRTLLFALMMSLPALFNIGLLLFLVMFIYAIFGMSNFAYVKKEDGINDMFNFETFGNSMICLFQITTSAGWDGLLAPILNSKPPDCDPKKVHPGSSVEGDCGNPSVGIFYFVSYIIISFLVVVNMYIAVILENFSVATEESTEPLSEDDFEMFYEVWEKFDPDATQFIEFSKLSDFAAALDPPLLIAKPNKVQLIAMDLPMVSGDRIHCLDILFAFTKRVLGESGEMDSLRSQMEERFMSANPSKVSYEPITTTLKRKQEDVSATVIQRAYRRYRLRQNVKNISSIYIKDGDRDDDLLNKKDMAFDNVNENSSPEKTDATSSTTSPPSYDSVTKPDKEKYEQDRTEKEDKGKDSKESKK
Sequence of hNav1.5 (Q14524 whole entry): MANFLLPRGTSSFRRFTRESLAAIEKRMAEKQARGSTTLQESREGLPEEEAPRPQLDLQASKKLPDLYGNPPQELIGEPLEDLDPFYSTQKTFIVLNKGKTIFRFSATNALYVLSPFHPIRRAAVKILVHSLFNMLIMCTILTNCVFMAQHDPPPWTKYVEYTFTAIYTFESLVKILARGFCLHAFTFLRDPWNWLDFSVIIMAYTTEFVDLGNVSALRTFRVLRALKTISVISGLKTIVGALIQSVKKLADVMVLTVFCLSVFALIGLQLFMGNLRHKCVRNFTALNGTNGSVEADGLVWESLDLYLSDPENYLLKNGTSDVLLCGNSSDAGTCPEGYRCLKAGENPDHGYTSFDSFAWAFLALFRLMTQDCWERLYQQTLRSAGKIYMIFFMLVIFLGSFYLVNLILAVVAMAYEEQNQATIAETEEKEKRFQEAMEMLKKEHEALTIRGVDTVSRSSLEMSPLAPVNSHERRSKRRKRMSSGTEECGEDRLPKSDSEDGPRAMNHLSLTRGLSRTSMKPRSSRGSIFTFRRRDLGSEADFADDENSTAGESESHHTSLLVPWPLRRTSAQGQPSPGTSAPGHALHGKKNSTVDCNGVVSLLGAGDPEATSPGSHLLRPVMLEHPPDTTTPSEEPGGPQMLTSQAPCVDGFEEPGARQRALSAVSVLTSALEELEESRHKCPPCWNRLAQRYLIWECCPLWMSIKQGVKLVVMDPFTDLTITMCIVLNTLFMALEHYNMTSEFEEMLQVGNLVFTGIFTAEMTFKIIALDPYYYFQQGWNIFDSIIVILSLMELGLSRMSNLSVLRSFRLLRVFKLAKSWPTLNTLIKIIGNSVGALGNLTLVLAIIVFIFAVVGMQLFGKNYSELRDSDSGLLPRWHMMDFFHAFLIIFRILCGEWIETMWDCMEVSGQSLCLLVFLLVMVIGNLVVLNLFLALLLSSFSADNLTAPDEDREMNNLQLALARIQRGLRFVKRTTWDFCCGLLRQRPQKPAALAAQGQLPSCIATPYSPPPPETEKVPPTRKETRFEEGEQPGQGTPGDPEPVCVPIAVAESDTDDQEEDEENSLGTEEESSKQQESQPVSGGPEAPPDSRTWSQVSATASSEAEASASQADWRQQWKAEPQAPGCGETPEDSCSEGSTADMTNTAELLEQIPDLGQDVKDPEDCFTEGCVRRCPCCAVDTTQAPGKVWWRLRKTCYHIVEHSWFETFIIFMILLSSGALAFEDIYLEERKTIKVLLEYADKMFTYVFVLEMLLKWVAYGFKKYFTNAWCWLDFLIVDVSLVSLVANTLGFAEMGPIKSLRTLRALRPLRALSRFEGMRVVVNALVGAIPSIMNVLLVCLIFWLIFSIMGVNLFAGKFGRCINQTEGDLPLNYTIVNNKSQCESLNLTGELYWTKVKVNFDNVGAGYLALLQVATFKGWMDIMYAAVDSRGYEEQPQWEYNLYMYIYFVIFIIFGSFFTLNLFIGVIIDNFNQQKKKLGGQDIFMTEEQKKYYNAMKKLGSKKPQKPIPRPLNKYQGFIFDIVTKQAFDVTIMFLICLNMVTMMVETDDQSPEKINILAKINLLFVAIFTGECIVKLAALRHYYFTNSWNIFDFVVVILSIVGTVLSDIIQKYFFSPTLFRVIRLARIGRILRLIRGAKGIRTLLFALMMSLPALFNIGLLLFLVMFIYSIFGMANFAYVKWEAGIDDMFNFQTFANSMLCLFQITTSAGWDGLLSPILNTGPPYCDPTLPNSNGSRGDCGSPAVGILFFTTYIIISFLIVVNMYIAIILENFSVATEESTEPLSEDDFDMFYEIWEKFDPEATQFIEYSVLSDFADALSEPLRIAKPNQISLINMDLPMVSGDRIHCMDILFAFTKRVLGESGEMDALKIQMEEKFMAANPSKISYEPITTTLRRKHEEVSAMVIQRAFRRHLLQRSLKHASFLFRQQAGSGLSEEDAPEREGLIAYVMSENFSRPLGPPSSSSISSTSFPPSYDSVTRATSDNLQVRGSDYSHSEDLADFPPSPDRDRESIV

For `CC[C@H](C)[C@H](NC(=O)[C@H](Cc1ccc(O)cc1)NC(=O)[C@H](CCCCN)NC(=O)[C@H](CCCNC(=N)N)NC(=O)[C@@H]1CSSC[C@@H]2NC(=O)[C@H](C)NC(=O)[C@H](CCCNC(=N)N)NC(=O)[C@H](CCCCN)NC(=O)[C@H](CO)NC(=O)[C@H](CC(=O)O)NC(=O)[C@@H]3CSSC[C@H](NC(=O)[C@H](CCC(=O)O)NC(=O)[C@H](CC(C)C)NC(=O)CNC(=O)[C@H](CCC(=O)O)NC(=O)[C@H](CSSC[C@H](NC(=O)[C@@H](N)Cc4ccc(O)cc4)C(=O)N[C@@H](CCC(N)=O)C(=O)N[C@@H](CCCCN)C(=O)N[C@@H](CC(C)C)C(=O)N[C@@H](CCSC)C(=O)N[C@@H](Cc4c[nH]c5ccccc45)C(=O)N[C@@H]([C@@H](C)O)C(=O)N3)NC2=O)C(=O)N[C@@H](CCCCN)C(=O)N[C@@H](CC(C)C)C(=O)N[C@@H](Cc2c[nH]c3ccccc23)C(=O)N1)C(N)=O` [compound 196], the IC50 on hNav1.7, on hNav1.5, on hNav1.4 and on hNav1.3 was above 5 µM throughout.

Turning to `CCC[C@@H]1NC(=O)[C@H](CCCCN)NC(=O)[C@H](CCC(N)=O)NC(=O)[C@@H](NC(=O)[C@@H](N)Cc2ccc(O)cc2)CSSC[C@@H]2NC(=O)[C@@H]3CSSC[C@@H](C(=O)N[C@@H](CCCNC(=N)N)C(=O)N[C@@H](CCCCN)C(=O)N[C@@H](Cc4ccc(O)cc4)C(=O)N[C@H](C(N)=O)[C@@H](C)CC)NC(=O)[C@H](Cc4c[nH]c5ccccc45)NC(=O)[C@H](CC(C)C)NC(=O)[C@H](CCCCN)NC(=O)[C@H](CSSC[C@H](NC(=O)[C@H]([C@@H](C)O)NC(=O)[C@H](Cc4c[nH]c5ccccc45)NC(=O)[C@H](CCSC)NC1=O)C(=O)N[C@@H](CC(=O)O)C(=O)N[C@@H](CO)C(=O)N[C@@H](CCCCN)C(=O)N[C@@H](CCCNC(=N)N)C(=O)N[C@@H](C)C(=O)N3)NC(=O)[C@H](CCC(=O)O)NC(=O)[C@H](CC(C)C)NC(=O)CNC(=O)[C@H](CCC(=O)O)NC2=O` [compound 198], the IC50 (as a rule, the concentration needed to halve the response being measured) on hNav1.7 was 3.3 µM; on hNav1.5 it was above 5 µM; on hNav1.4 it was above 5 µM; on hNav1.3 it was above 5 µM.

For `CC[C@H](C)[C@H](NC(=O)[C@H](Cc1ccc(O)cc1)NC(=O)[C@H](CCCCN)NC(=O)[C@H](CCCNC(=N)N)NC(=O)[C@@H]1CSSC[C@@H]2NC(=O)[C@H](C)NC(=O)[C@H](CCCNC(=N)N)NC(=O)[C@H](CCCCN)NC(=O)[C@H](CO)NC(=O)[C@H](CC(=O)O)NC(=O)[C@@H]3CSSC[C@H](NC(=O)[C@H](CCC(=O)O)NC(=O)[C@H](CC(C)C)NC(=O)CNC(=O)[C@H](CCC(=O)O)NC(=O)[C@H](CSSC[C@H](NC(=O)[C@@H](N)Cc4ccc(O)cc4)C(=O)N[C@@H](CCC(N)=O)C(=O)N[C@@H](CCCCN)C(=O)N[C@@H](CCCNC(N)=O)C(=O)N[C@@H](CCSC)C(=O)N[C@@H](Cc4c[nH]c5ccccc45)C(=O)N[C@@H]([C@@H](C)O)C(=O)N3)NC2=O)C(=O)N[C@@H](CCCCN)C(=O)N[C@@H](CC(C)C)C(=O)N[C@@H](Cc2c[nH]c3ccccc23)C(=O)N1)C(N)=O` [compound 199], the IC50 on hNav1.7, at hNav1.5, on hNav1.4 and at hNav1.3 was above 5 µM in each case.

Regarding `CC[C@H](C)[C@H](NC(=O)[C@H](Cc1ccc(O)cc1)NC(=O)[C@H](CCCCN)NC(=O)[C@H](CCCNC(=N)N)NC(=O)[C@@H]1CSSC[C@@H]2NC(=O)[C@H](C)NC(=O)[C@H](CCCNC(=N)N)NC(=O)[C@H](CCCCN)NC(=O)[C@H](CO)NC(=O)[C@H](CC(=O)O)NC(=O)[C@@H]3CSSC[C@H](NC(=O)[C@H](CCC(=O)O)NC(=O)[C@H](CC(C)C)NC(=O)CNC(=O)[C@H](CCC(=O)O)NC(=O)[C@H](CSSC[C@H](NC(=O)[C@@H](N)Cc4ccc(O)cc4)C(=O)N[C@@H](CCC(N)=O)C(=O)N[C@@H](CCCCN)C(=O)N[C@@H](CCCCN)C(=O)N[C@@H](CCSC)C(=O)N[C@@H](Cc4c[nH]c5ccccc45)C(=O)N[C@@H]([C@@H](C)O)C(=O)N3)NC2=O)C(=O)N[C@@H](CCCCN)C(=O)N[C@@H](CC(C)C)C(=O)N[C@@H](Cc2c[nH]c3ccccc23)C(=O)N1)C(N)=O` [compound 200], the IC50 on hNav1.7, on hNav1.5, on hNav1.4 and on hNav1.3 was above 5 µM throughout.

The record behind these values is patent US9636418B2 (priority 2013, dated 2017).
